Test results as given in patent publication US8415342B2, “Besifloxacin ophthalmic composition for the treatment or control of infection” (Bausch & Lomb Incorporated, priority 2008, dated 2013).
≈ marks a conversion by molar mass, not a printed value. Where “and” joins values, the source holds several entries; their conditions need not be identical. Equal values may be shown once.

Legend:
S. pneumoniae DNA gyrase [1] = biological target: T1, S. pneumoniae DNA gyrase (Streptococcus pneumoniae serotype 4, UniProt P0A4L9+P72524); assay: Catalytic inhibition of purified DNA gyrase; format: biochemical
T1 sequence (P72524 whole entry): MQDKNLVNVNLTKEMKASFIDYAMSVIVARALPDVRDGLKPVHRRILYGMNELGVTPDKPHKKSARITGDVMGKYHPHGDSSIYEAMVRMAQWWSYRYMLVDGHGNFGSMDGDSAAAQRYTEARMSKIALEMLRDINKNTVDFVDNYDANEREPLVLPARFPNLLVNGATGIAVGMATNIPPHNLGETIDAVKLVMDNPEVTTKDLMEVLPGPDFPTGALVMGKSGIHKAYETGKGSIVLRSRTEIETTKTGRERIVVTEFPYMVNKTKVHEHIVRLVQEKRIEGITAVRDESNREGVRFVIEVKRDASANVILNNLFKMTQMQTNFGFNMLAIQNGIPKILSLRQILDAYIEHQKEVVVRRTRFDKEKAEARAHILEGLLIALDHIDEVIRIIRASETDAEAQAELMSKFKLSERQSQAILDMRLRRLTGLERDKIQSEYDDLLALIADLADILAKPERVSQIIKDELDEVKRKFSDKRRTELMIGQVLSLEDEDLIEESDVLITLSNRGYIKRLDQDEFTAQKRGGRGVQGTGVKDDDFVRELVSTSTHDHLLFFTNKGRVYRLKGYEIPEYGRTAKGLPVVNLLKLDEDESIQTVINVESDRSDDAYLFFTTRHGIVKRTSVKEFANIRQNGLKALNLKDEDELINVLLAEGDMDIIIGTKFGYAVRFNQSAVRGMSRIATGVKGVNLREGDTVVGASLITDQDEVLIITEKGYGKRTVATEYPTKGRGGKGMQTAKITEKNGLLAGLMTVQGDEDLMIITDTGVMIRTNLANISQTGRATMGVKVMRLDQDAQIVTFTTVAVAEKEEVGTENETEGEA
T1 sequence (P0A4L9 whole entry): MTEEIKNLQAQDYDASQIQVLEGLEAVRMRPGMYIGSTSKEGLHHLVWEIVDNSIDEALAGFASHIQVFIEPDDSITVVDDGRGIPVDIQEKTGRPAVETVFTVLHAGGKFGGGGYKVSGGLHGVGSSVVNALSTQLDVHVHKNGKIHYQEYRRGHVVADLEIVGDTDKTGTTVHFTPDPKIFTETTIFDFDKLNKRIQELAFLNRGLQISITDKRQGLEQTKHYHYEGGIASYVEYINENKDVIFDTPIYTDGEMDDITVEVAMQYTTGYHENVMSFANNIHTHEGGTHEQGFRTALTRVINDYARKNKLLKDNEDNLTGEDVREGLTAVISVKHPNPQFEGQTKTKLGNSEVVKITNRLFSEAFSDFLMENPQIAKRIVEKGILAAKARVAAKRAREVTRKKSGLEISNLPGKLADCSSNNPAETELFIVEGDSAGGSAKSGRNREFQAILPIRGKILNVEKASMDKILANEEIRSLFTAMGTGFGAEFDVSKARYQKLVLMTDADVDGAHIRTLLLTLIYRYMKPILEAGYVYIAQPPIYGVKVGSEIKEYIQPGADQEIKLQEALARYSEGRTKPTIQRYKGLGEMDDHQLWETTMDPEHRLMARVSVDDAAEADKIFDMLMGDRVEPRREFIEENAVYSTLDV

S. pneumoniae DNA gyrase [2] = biological target: T1, S. pneumoniae DNA gyrase; assay: Cleavable complex stimulation (CC25), DNA gyrase; format: biochemical; conditions: S. pneumoniae enzymes; concentration that produces 25% linearization of the DNA
E. coli topoisomerase IV = E. coli topoisomerase IV (Escherichia coli, UniProt P0AFI2+P20083); assay: Cleavable complex stimulation (CC25), topoisomerase IV; format: biochemical; conditions: E. coli enzymes; concentration that produces 25% linearization of the DNA
Sequence of E. coli topoisomerase IV (P0AFI2 whole entry): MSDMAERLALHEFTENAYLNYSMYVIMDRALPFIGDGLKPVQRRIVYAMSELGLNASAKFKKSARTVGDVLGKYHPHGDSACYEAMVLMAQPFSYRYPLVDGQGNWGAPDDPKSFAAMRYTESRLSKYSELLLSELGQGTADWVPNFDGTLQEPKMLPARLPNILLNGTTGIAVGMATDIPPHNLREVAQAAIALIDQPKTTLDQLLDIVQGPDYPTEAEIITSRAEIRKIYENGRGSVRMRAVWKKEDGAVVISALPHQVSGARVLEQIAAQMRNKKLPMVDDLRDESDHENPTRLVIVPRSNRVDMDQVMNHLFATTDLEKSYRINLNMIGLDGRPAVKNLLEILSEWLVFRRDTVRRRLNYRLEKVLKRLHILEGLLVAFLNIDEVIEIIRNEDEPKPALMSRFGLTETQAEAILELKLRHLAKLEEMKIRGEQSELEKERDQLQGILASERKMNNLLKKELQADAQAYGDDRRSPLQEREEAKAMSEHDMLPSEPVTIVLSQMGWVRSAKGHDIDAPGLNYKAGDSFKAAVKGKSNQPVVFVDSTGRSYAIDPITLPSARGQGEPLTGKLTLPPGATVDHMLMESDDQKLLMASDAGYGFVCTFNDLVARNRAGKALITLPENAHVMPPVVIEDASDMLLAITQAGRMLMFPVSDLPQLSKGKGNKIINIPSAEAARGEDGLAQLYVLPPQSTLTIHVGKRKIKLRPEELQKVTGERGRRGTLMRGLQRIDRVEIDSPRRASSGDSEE
Sequence of E. coli topoisomerase IV (P20083 whole entry): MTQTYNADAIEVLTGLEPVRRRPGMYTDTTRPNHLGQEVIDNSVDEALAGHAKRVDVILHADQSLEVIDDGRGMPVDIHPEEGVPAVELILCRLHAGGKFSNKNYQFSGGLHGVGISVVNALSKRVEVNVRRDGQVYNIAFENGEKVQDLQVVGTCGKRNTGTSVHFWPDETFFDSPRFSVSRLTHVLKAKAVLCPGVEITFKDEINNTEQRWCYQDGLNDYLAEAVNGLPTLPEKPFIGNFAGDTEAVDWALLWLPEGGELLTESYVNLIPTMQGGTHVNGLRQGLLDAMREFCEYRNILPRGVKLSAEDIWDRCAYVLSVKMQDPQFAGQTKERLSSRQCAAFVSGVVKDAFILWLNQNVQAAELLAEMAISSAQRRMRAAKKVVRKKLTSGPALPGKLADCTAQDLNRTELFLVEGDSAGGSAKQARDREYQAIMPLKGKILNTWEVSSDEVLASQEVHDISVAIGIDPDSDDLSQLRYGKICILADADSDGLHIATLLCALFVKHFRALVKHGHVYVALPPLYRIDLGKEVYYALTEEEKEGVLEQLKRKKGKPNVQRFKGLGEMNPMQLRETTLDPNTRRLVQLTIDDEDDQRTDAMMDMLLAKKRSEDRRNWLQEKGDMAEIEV

E. coli = assay: In vitro multistep selection for besifloxacin-resistant mutants; format: cell-based; conditions: for MIC: Escherichia coli
Description: (§1) Furthermore, an experiment was conducted to assess the mechanism of action of besifloxacin in S. pneumoniae, S. aureus, and E. coli via step selections for isolates with decreased susceptibility to besifloxacin, as well as by testing for altered susceptibilities of ciprofloxacin-resistant variants of all three species containing genetically defined mutations in the quinolone resistance determining regions (QRDRs) of structural genes encoding DNA gyrase and topoisomerase IV (Table 2).
(§2) Besifloxacin is a potent antibacterial agent by virtue of its efficient biochemical inhibition of type II bacterial topoisomerases at low micromolar levels. Besifloxacin was associated with a low mutant prevention concentration (MPC), especially in the two Gram-positive pathogens, S. aureus and S. pneumoniae, in which the MPCs were only four times higher than the MICs for those organisms. Correspondingly, very few drug-resistant mutants were obtained in in vitro experiments for those two species (<1 mutant per 10^10 cells).
(§3) As a consequence, strains with high-level resistance would only emerge if both targets were mutated simultaneously, an event that is not very likely in strains that lack predisposing mutations. A dual-targeting mechanism of action for besifloxacin is supported by the following experimental evidence: • In S. aureus and S. pneumoniae, single (1st step) mutants were extremely rare (<1/10^10 cells) and only few or no double (2nd step) mutants were obtained (Table 3). • Single mutations in the gyrA or in the parC gene were obtained in S. aureus as well as in S. pneumoniae. […] By comparison, all single mutations in quinolone-resistant strains of E. coli were mapped to either the gyrA or the gyrB gene consistent with the general finding that quinolones primarily target the DNA gyrase in Gram-negative bacteria. • Biochemical experiments with the purified DNA gyrase and topoisomerase IV enzymes from S. pneumoniae and E. coli were performed.

S. aureus = assay: as above; format: cell-based; conditions: for MIC: Staphylococcus aureus
Description: as §1, §2, §3

S. pneumoniae = assay: as above; format: cell-based; conditions: for MIC: Streptococcus pneumoniae
Description: as §1, §2, §3

bacterial conjunctivitis = assay: Study 373: besifloxacin ophthalmic suspension vs vehicle, TID 5 days; conditions: N = 60; for Clinical Resolution (2 indices), Resolution / Clinical Resolution (3 indices), No / Clinical Resolution (3 indices), Yes / Microbial Eradication, No / Microbial Eradication, Yes: ITT culture confirmed; for Clinical Resolution (2 indices), Non-resolution: missing or discontinued imputed as non-resolution
[3] = 2nd step, NMO = No mutants obtained
[4] = Visit 3 (Day 8 or 9), primary endpoint

With N[C@@H]1CCCCN(c2c(F)cc3c(=O)c(C(=O)O)cn(C4CC4)c3c2Cl)C1 [Besifloxacin, (R)-(+)-(3-amino-2,3,4,5,6,7-hexahydro-1H-azepin-1-yl)-8-chloro-1-cyclopropyl-6-fluoro-1,4,-dihydro-4-oxo-3-quinolinecarboxylic acid] the “potency relative to ciprofloxacin and moxifloxacin (catalytic inhibition and cleavable complex stimulation)” value (S. pneumoniae DNA gyrase [1]; S. pneumoniae DNA gyrase) was 4- to 16 fold, the IC50 (S. pneumoniae DNA gyrase [1]; S. pneumoniae enzymes) was 2500 nM and 2540 nM and the “difference between inhibitory concentrations for DNA gyrase and topoisomerase IV” value (S. pneumoniae DNA gyrase [1]; S. pneumoniae enzymes) was 2.5 fold. For the same compound, the “CC25 Gyrase” value (S. pneumoniae DNA gyrase [2]) was 2.5 μM and 1 μg/mL, the “CC25 Topo IV” value (E. coli topoisomerase IV) was 1.4 μM and 0.6 μg/mL and the “MPC (Mutant prevention concentration)” value (E. coli; 1st step) was 4 µg/mL. The “MSW (Mutant Selection Window)” value (E. coli; 1st step) was 0.12 to 2 µg/mL, the “Mutation rate at 4 × MIC” value (E. coli; 1st step) was 3.8 × 10^−8 and the “MPC (Mutant prevention concentration)” value (E. coli; 2nd step) was 16 µg/mL. The “MSW (Mutant Selection Window)” value (E. coli; 2nd step) was 2 to 8 µg/mL, the “Mutation rate at 4 × MIC” value (E. coli; 2nd step) was 6 × 10^−9 and the MIC (E. coli; 1st step) was 0.12 µg/mL (≈ 0.305 µM). For the same compound, the MIC (E. coli; 2nd step) was 2 µg/mL (≈ 5.08 µM), the “MPC (Mutant prevention concentration)” value (S. aureus; 1st step) was 0.12 µg/mL and the “MSW (Mutant Selection Window)” value (S. aureus; 1st step) was 0.03 to 0.06 µg/mL. For the same compound, the “Mutation rate at 4 × MIC” value (S. aureus; 1st step) was 3.3 × 10^−10, the “MPC (Mutant prevention concentration)” value (S. aureus; 2nd step) was 0.25 µg/mL and the “MSW (Mutant Selection Window)” value (S. aureus; [3]) was “NMO”. The “Mutation rate at 4 × MIC” value (S. aureus; [3]) was “NMO”, the MIC (S. aureus; 1st step) was 0.03 µg/mL (≈ 0.0762 µM) and the MIC (S. aureus; 2nd step) was 0.25 µg/mL (≈ 0.635 µM). For the same compound, the “frequency of drug-resistant (single, 1st step) mutants” value (S. aureus; in vitro) was under 1 per 10^10 cells, the “MPC (Mutant prevention concentration)” value (S. pneumoniae; 1st step) was 0.5 µg/mL and the “MSW (Mutant Selection Window)” value (S. pneumoniae; 1st step) was 0.12 to 0.25 µg/mL. The “Mutation rate at 4 × MIC” value (S. pneumoniae; 1st step) was <7 × 10^−10, the “MPC (Mutant prevention concentration)” value (S. pneumoniae; 2nd step) was 2 to 4 µg/mL and the “MSW (Mutant Selection Window)” value (S. pneumoniae; 2nd step) was 0.5 to 2 µg/mL. The “Mutation rate at 4 × MIC” value (S. pneumoniae; 2nd step) was 2.4 × 10^−8, the MIC (S. pneumoniae; 1st step) was 0.12 µg/mL (≈ 0.305 µM) and the MIC (S. pneumoniae; 2nd step) was 0.5 µg/mL (≈ 1.27 µM). For the same compound, the “frequency of drug-resistant (single, 1st step) mutants” value (S. pneumoniae; in vitro) was under 1 per 10^10 cells, the “Clinical Resolution (2 indices), Resolution” value (bacterial conjunctivitis; Visit 2 (Day 4 ± 1)) was 20 (33.3) n (%) and the “Clinical Resolution (3 indices), No” value (bacterial conjunctivitis; Visit 2 (Day 4 ± 1)) was 46 (76.7) n (%). The “Clinical Resolution (3 indices), Yes” value (bacterial conjunctivitis; Visit 2 (Day 4 ± 1)) was 14 (23.3) n (%), the “Microbial Eradication, No” value (bacterial conjunctivitis; Visit 2 (Day 4 ± 1)) was 6 (10.0) n (%) and the “Microbial Eradication, Yes” value (bacterial conjunctivitis; Visit 2 (Day 4 ± 1)) was 54 (90.0) n (%). The “Clinical Resolution (2 indices), Non-resolution” value (bacterial conjunctivitis; Visit 2 (Day 4 ± 1)) was 40 (66.7) n (%), the “Clinical Resolution (2 indices), Resolution” value (bacterial conjunctivitis; Visit 3 (Day 8 or 9)) was 44 (73.3) n (%) and the “Clinical Resolution (3 indices), No” value (bacterial conjunctivitis; Visit 3 (Day 8 or 9)) was 23 (38.3) n (%). The “Microbial Eradication, No” value (bacterial conjunctivitis; Visit 3 (Day 8 or 9)) was 6 (10.0) n (%), the “Clinical Resolution (2 indices), Non-resolution” value (bacterial conjunctivitis; Visit 3 (Day 8 or 9)) was 16 (26.7) n (%) and the “Clinical Resolution (3 indices), Yes” value (bacterial conjunctivitis; [4]) was 37 (61.7) n (%). The “Microbial Eradication, Yes” value (bacterial conjunctivitis; [4]) was 54 (90.0) n (%).
